Data published in ChEMBL document CHEMBL3991601, “The target landscape of clinical kinase drugs” (Science, 2017).
Activity calls are given as the source filed them.

Experiments:
[1] = target: Ras-related protein Rab-6A (Homo sapiens, UniProt P20340)
[2] = target: Glycogen synthase kinase-3 beta (Homo sapiens, UniProt P49841)
[3] = target: Mitogen-activated protein kinase 9 (Homo sapiens, UniProt P45984)
[4] = target: Inosine-5'-monophosphate dehydrogenase 2 (Homo sapiens, UniProt P12268)
[5] = target: Serine/threonine-protein kinase SIK2 (Homo sapiens, UniProt Q9H0K1)
Chain of Serine/threonine-protein kinase SIK2 (Q9H0K1 whole entry): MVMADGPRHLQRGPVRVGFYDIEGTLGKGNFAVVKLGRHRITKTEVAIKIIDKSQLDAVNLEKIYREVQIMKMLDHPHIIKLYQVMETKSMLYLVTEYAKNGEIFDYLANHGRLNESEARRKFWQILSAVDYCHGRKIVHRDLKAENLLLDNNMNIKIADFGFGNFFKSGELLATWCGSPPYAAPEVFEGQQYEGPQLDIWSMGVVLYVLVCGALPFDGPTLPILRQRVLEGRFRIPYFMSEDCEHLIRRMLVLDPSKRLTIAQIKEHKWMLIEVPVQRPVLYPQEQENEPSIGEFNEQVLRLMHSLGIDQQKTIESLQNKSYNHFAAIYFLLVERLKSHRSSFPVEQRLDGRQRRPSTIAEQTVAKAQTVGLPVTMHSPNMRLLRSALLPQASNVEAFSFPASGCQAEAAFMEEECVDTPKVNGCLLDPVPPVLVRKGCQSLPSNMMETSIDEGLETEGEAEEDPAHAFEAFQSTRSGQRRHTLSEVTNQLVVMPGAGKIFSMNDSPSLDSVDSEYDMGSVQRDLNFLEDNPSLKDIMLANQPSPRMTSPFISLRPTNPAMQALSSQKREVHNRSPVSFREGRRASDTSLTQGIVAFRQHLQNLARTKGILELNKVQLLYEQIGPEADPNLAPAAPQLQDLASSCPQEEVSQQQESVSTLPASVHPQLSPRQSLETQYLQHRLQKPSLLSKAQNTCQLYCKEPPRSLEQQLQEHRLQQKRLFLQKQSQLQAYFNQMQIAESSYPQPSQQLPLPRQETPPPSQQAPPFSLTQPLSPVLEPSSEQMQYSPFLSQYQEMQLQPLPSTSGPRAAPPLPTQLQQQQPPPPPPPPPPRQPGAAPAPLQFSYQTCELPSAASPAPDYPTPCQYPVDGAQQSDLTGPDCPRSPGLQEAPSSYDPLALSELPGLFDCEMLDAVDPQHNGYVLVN

[6] = target: T1, ATP-dependent 6-phosphofructokinase, platelet type (Homo sapiens, UniProt Q01813)
T1 sequence (Q01813 whole entry): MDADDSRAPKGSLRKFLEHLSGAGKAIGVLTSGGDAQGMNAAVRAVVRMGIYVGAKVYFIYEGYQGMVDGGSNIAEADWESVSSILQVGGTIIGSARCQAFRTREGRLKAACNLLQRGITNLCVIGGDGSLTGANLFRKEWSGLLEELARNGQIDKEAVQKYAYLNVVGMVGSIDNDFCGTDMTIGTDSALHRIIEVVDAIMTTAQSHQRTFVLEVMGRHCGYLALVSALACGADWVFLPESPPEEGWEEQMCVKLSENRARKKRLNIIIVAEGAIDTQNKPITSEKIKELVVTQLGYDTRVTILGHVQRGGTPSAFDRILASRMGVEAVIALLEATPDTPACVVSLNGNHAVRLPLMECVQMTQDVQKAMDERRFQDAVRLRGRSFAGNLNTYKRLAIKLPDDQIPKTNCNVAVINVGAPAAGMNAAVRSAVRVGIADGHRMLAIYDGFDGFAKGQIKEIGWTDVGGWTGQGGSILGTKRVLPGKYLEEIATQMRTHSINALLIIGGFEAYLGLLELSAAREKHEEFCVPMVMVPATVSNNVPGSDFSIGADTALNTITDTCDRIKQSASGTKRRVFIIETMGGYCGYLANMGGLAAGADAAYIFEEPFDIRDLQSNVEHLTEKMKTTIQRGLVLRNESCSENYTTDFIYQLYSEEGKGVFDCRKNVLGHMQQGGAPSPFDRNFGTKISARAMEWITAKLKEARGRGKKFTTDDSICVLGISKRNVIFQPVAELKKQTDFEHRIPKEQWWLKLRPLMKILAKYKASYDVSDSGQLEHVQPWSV

[7] = target: Casein kinase I isoform delta (Homo sapiens, UniProt P48730)
Chain of Casein kinase I isoform delta (P48730 whole entry, canonical isoform): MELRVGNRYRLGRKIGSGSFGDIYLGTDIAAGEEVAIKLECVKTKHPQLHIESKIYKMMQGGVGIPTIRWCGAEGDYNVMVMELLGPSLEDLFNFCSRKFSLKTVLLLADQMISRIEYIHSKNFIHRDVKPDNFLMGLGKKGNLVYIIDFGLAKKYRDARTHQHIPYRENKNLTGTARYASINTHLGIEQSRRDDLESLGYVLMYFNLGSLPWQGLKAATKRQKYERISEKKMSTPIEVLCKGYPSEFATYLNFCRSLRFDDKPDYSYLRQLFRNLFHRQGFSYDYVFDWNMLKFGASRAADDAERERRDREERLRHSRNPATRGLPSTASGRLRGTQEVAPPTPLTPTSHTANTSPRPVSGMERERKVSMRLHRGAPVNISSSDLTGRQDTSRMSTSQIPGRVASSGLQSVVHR

[8] = target: Myosin light chain kinase, smooth muscle (Homo sapiens, UniProt Q15746)
Chain of Myosin light chain kinase, smooth muscle (Q15746 whole entry): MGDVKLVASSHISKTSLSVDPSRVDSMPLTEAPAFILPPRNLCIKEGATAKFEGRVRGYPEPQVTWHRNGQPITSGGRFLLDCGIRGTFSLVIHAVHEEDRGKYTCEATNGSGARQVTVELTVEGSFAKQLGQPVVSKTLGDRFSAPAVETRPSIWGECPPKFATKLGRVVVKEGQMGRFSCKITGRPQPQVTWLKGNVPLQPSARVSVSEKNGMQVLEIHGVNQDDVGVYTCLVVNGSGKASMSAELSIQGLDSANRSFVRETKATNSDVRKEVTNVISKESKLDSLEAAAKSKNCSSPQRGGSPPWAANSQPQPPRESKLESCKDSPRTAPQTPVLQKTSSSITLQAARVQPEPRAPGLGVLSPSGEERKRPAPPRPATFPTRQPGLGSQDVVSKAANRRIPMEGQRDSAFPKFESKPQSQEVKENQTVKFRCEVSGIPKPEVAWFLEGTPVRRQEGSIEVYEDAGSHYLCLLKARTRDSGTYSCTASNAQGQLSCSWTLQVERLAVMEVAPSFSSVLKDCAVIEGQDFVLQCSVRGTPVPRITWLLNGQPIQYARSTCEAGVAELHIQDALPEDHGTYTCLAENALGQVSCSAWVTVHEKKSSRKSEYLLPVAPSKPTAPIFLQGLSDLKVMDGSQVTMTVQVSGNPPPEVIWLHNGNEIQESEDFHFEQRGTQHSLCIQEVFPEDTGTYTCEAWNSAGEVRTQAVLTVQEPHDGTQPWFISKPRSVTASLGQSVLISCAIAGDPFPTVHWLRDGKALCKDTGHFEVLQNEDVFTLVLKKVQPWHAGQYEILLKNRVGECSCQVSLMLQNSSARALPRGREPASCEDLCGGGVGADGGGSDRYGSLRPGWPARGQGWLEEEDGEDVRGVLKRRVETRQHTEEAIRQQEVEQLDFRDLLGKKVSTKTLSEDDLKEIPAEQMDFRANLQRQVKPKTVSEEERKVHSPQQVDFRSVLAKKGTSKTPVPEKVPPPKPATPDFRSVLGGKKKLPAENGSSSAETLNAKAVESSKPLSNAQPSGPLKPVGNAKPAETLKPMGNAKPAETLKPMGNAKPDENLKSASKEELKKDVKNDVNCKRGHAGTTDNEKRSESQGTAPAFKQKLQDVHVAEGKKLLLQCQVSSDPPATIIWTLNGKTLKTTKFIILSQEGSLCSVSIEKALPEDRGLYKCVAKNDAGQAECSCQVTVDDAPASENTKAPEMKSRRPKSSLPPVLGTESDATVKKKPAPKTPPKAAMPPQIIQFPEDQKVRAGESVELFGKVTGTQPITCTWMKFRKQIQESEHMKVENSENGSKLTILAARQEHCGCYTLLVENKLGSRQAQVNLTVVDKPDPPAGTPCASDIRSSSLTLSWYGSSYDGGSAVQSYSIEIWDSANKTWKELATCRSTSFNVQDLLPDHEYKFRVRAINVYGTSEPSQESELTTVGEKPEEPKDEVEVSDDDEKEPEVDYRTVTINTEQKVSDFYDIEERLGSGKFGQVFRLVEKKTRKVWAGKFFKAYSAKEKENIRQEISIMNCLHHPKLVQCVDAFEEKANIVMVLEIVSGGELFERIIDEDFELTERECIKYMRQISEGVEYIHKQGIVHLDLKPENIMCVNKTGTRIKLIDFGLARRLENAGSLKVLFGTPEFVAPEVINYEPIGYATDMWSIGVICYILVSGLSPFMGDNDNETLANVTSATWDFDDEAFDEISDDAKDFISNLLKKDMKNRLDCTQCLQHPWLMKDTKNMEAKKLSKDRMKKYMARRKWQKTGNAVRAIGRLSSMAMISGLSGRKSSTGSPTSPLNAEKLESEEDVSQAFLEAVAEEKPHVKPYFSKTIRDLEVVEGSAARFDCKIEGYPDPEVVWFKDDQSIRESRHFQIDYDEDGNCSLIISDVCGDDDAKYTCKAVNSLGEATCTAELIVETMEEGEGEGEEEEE

[9] = target: Non-receptor tyrosine-protein kinase TYK2 (Homo sapiens, UniProt P29597)
[10] = target: ATP-dependent RNA helicase DDX3X (Homo sapiens, UniProt O00571)
[11] = target: S-adenosylmethionine synthase isoform type-2 (Homo sapiens, UniProt P31153)
[12] = target: Interleukin-1 receptor-associated kinase 1 (Homo sapiens, UniProt P51617)
Chain of Interleukin-1 receptor-associated kinase 1 (P51617 whole entry): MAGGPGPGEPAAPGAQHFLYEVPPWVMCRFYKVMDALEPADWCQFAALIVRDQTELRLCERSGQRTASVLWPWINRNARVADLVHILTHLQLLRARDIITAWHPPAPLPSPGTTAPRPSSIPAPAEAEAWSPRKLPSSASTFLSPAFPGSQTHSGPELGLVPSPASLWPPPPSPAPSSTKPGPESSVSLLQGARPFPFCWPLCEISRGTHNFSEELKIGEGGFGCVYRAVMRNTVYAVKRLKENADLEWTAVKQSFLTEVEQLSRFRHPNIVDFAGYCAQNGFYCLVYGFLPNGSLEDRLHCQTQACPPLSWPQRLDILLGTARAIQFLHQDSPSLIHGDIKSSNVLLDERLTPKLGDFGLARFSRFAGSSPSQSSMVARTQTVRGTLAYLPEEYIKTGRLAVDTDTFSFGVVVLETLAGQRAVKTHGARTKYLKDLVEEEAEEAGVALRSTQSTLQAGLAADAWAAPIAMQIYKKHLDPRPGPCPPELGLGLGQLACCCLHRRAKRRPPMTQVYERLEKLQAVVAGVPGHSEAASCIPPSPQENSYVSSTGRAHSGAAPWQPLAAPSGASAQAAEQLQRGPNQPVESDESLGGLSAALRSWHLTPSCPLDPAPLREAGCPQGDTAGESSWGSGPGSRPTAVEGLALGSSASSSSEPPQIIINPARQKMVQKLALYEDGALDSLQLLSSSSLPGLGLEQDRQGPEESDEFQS

[13] = target: T2, Structural maintenance of chromosomes protein 1A (Homo sapiens, UniProt Q14683)
T2 sequence (Q14683 whole entry): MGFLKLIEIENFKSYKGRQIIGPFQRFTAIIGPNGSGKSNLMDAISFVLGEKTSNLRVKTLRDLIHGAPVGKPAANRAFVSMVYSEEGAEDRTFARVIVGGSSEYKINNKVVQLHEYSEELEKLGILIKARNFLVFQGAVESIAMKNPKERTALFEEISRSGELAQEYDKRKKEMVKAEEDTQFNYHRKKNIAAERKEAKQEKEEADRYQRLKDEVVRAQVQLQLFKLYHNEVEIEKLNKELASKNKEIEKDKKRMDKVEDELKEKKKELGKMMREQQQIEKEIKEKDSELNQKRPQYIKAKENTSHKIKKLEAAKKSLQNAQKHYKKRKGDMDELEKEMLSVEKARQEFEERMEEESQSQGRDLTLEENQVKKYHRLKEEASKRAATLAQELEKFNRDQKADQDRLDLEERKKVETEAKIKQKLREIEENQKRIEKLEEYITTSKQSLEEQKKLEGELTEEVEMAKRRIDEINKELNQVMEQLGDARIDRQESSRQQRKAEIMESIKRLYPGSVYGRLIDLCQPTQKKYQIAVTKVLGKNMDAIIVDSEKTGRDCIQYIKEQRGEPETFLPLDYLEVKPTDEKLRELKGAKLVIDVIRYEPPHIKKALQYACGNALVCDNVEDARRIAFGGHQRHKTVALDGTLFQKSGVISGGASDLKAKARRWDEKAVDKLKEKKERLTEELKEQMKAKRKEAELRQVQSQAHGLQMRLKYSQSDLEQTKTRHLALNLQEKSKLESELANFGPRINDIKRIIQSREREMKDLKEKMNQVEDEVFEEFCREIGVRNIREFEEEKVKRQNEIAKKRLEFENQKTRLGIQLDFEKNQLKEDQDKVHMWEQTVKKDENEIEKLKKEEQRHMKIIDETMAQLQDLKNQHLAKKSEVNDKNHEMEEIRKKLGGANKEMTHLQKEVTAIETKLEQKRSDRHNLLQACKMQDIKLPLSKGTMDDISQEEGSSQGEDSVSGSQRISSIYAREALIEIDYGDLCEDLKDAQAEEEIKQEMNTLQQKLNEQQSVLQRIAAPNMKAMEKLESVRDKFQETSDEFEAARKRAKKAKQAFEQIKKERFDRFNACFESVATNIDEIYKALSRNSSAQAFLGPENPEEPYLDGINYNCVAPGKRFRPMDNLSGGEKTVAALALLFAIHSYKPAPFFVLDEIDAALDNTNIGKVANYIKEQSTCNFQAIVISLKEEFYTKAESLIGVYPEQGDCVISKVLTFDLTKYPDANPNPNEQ
Also: in the data inactive means no Kd found up to 30 µM.

Chain of Glycogen synthase kinase-3 beta (P49841 whole entry): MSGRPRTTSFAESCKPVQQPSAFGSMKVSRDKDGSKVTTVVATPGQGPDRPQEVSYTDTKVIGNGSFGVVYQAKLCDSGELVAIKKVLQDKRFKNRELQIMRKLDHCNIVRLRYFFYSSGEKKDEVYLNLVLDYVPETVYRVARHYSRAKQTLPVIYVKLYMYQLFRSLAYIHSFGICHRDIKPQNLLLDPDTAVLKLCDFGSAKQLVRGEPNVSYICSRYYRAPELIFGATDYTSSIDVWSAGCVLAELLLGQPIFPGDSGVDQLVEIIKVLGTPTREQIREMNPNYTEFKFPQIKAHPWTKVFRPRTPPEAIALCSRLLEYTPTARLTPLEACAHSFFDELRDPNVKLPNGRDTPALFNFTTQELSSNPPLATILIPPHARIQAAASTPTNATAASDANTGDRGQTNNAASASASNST
Chain of Mitogen-activated protein kinase 9 (P45984 whole entry): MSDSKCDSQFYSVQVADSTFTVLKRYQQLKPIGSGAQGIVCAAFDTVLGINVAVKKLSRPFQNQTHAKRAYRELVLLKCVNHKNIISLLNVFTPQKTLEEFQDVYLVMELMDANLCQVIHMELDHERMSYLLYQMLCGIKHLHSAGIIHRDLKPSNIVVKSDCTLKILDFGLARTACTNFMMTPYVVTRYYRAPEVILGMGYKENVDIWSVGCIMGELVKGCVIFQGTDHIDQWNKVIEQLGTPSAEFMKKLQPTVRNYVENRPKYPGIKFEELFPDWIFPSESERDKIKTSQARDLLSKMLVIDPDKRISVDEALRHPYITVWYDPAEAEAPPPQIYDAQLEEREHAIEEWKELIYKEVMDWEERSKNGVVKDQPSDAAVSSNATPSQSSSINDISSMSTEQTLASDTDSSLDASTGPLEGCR
Chain of Ras-related protein Rab-6A (P20340 whole entry): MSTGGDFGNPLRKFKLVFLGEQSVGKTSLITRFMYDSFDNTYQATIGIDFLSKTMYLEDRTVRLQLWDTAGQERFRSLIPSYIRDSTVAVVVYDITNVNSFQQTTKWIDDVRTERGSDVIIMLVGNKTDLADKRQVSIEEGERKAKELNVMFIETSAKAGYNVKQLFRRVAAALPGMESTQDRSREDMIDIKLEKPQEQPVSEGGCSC

Row | Kd [1] | Kd [2] | Kd [3] | Kd [4] | Kd [5] | Kd [6] | Kd [7] | Kd [8] | Kd [9] | Kd [10] | Kd [11] | Kd [12] | Kd [13] | SMILES
1 | > 30 µM (inactive) | > 30 µM (inactive) | > 30 µM (inactive) | > 30 µM (inactive) | > 30 µM (inactive) | > 30 µM (inactive) | > 30 µM (inactive) | > 30 µM (inactive) | > 30 µM (inactive) | > 30 µM (inactive) | > 30 µM (inactive) | > 30 µM (inactive) | > 30 µM (inactive) | COc1cc2nccc(Oc3ccc(NC(=O)Nc4cc(C)on4)c(Cl)c3)c2cc1OC [TIVOZANIB]
2 | > 30 µM (inactive) | > 30 µM (inactive) | > 30 µM (inactive) | > 30 µM (inactive) | > 30 µM (inactive) | > 30 µM (inactive) | > 30 µM (inactive) | > 30 µM (inactive) | > 30 µM (inactive) | > 30 µM (inactive) | > 30 µM (inactive) | > 30 µM (inactive) | > 30 µM (inactive) | CC(C)Nc1cc(-c2c[nH]c(C(=O)N[C@H](CO)c3cccc(Cl)c3)c2)c(Cl)cn1 [ULIXERTINIB]
3 | > 30 µM (inactive) | > 30 µM (inactive) | > 30 µM (inactive) | > 30 µM (inactive) | > 30 µM (inactive) | > 30 µM (inactive) | > 30 µM (inactive) | > 30 µM (inactive) | > 30 µM (inactive) | > 30 µM (inactive) | > 30 µM (inactive) | > 30 µM (inactive) | > 30 µM (inactive) | COc1ccc(-c2ccc3c(N4CCOC[C@@H]4C)nc(N4CCOC[C@@H]4C)nc3n2)cc1CO [AZD-8055]
4 | > 30 µM (inactive) | > 30 µM (inactive) | > 30 µM (inactive) | > 30 µM (inactive) | > 30 µM (inactive) | > 30 µM (inactive) | > 30 µM (inactive) | > 30 µM (inactive) | > 30 µM (inactive) | > 30 µM (inactive) | > 30 µM (inactive) | 1.58 µM (active) | > 30 µM (inactive) | O=C(O)[C@]1(Cc2cccc(Nc3nccs3)n2)CC[C@@H](Oc2cccc(Cl)c2F)CC1 [MK-5108]

Row | SMILES | Kd [1] | Kd [2] | Kd [3] | Kd [4] | Kd [5] | Kd [6] | Kd [7] | Kd [8] | Kd [9] | Kd [10] | Kd [11] | Kd [12] | Kd [13]
5 | Cc1ccc(-n2nc(C(C)(C)C)cc2NC(=O)NCc2cc(F)ccc2Oc2ccc3c(cnn3CCO)c2)cc1 [PEXMETINIB] | > 30 µM (inactive) | > 30 µM (inactive) | 0.312 µM (active) | > 30 µM (inactive) | > 30 µM (inactive) | > 30 µM (inactive) | > 30 µM (inactive) | 0.081 µM | > 30 µM (inactive) | > 30 µM (inactive) | > 30 µM (inactive) | 4.37 µM (active) | > 30 µM (inactive)
